Data on nine compounds can be found in patent US20260297080A1, “BICYCLIC COMPOUNDS AS CDK INHIBITORS” (BeOne Medicines I GmbH, priority 2022, published 2026).

The target of one assay is CDK2/Cyclin E1 (Homo sapiens, UniProt P24941). As to the kind of experiment: CDK2/Cyclin E1 Biochemical Assay (TR-FRET), 1 mM ATP. As to conditions: 0.15 μM Rb (Ser780)-biotin substrate, pH7.0, 60 min preincubation, 90 min reaction, room temperature. The procedure: (§1) CDK2/Cyclin E1 and CDK1/Cyclin B1 Biochemical Assays
(§2) Compounds disclosed herein were tested for inhibition of CDK2/Cyclin E1 or CDK1/Cyclin B1 kinase in an assay based on the time-resolved fluorescence-resonance energy transfer (TR-FRET) methodology. The assay was carried out in 384-well low volume black plates in a reaction mixture containing CDK2/Cyclin E1 or CDK1/Cyclin B1, 1 mM ATP for CDK2/Cyclin E1 and CDK1/Cyclin B1, 0.15 μM Rb (Ser780)-biotin substrate and 0-10 μM compound in buffer containing 50 mM HEPES pH7.0, 0.02% NaN3, 0.01% BSA, 0.1 mM Orthovanadate, 50 mM MgCl2, 1 mM DTT and 0.005% Tween-20. The kinase was incubated with compound for 60 minutes at room temperature and the reaction was initiated by the addition of ATP and Rb (Ser780)-biotin substrate. After reaction at room temperature for 90 minutes, an equal volume of stop/detection solution was added according to the manufacture's instruction (Cisbio Bioassays). The stop/detection solution contained Streptavidin-XL665 and Anti-pRb (Ser780) mAb-Eu Cryptate in Detection buffer (Cisbio Bioassays). Plates were incubated at room temperature for 60 minutes, and the TR-FRET signals (ex337 nm, em665 nm/620 nm) were recorded on a PHERAstar FSX plate reader (BMG Labtech). The inhibition percentage of CDK2/Cyclin E1 or CDK1/Cyclin B1 kinase activity in presence of increasing concentrations of compounds was calculated based on the ratio of fluorescence at 665 nm to that at 620 nm. The IC50 for each compound was derived from fitting the data to the four-parameter logistic equation by Dotmatics.

The target of the next assay is CDK1/Cyclin B1 (Homo sapiens, UniProt P06493). The assay can be described thus: CDK1/Cyclin B1 Biochemical Assay (TR-FRET), 1 mM ATP. As to conditions: 0.15 μM Rb (Ser780)-biotin substrate, pH7.0, 60 min preincubation, 90 min reaction, room temperature. The procedure: as §1, §2
Sequence of CDK1/Cyclin B1 (P06493 whole entry): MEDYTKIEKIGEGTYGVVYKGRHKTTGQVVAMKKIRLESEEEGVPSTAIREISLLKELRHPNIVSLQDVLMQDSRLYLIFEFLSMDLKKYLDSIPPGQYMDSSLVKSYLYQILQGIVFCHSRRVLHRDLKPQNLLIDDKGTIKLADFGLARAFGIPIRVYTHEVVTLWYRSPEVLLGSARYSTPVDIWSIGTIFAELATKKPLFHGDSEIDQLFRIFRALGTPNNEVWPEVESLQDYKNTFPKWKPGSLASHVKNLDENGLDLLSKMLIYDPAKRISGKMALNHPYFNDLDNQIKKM
Sequence of CDK1/Cyclin B1 (P14635 whole entry partner): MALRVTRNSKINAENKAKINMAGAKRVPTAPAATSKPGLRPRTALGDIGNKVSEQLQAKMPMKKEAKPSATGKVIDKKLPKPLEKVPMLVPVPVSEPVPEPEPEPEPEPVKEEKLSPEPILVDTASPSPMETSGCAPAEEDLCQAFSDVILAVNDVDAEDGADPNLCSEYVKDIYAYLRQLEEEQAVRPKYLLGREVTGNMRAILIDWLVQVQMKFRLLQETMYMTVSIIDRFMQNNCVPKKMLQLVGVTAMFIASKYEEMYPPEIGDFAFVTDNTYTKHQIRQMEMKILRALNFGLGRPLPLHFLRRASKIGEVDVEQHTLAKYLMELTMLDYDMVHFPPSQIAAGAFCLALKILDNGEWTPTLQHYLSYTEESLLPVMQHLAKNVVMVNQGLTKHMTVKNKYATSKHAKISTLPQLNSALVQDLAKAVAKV
For orientation: In TR-FRET formats the signal depends on donor and acceptor labels being close together.

As usually defined, the IC50 is the concentration that inhibits the measured activity by half. A higher IC50 goes with a need for much substance. Regarding `CC[C@H](C)NC(=O)O[C@H]1CC[C@@H](c2cc(Nc3ccc4c(c3F)CCS(=O)(=O)N4)n[nH]2)C1` (relative stereo) [Example 461, cis-3-(3-((5-fluoro-2,2-dioxido-3,4-dihydro-1H-benzo[c][1,2]thiazin-6-yl)amino)-1H-pyrazol-5-yl)cyclopentyl((S)-sec-butyl)carbamate], the IC50 amounted to 0.3 nM on CDK2/Cyclin E1 and 0.271 µM against CDK1/Cyclin B1.
As to `CC1(NC(=O)O[C@H]2CC[C@@H](c3cc(Nc4ccc5c(c4F)CCS(=O)(=O)N5)n[nH]3)C2)CC1` (relative stereo) [Example 462, cis-3-(3-((5-fluoro-2,2-dioxido-3,4-dihydro-1H-benzo[c][1,2]thiazin-6-yl)amino)-1H-pyrazol-5-yl)cyclopentyl(1-methylcyclopropyl)carbamate], the IC50 against CDK2/Cyclin E1 worked out at 0.7 nM; against CDK1/Cyclin B1, 0.349 µM.
Turning to `CC(C)NC(=O)O[C@H]1CC[C@@H](c2cc(Nc3ccc4c(c3F)NS(=O)(=O)N4)n[nH]2)C1` (relative stereo) [Example 465, cis-3-(3-((4-fluoro-2,2-dioxido-1,3-dihydrobenzo[c][1,2,5]thiadiazol-5-yl)amino)-1H-pyrazol-5-yl)cyclopentyl isopropylcarbamate], the figures for the IC50 on CDK2/Cyclin E1 and against CDK1/Cyclin B1 were 18 nM and 4.89 µM, respectively.
The corresponding values for `CC(C)NC(=O)O[C@H]1CC[C@@H](c2cc(Nc3ccc4c(c3F)N(C)S(=O)(=O)N4)n[nH]2)C1` (relative stereo) [Example 466, cis-3-(3-((4-fluoro-3-methyl-2,2-dioxido-1,3-dihydrobenzo[c][1,2,5]thiadiazol-5-yl)amino)-1H-pyrazol-5-yl)cyclopentyl isopropylcarbamate] are 63 nM and more than 10 µM.
Consider `CC(C)NC(=O)O[C@H]1CC[C@@H](c2cc(Nc3ccc4c(c3F)NS(=O)(=O)N4C)n[nH]2)C1` (relative stereo) [Example 467, cis-3-(3-((4-fluoro-1-methyl-2,2-dioxido-1,3-dihydrobenzo[c][1,2,5]thiadiazol-5-yl)amino)-1H-pyrazol-5-yl)cyclopentyl isopropylcarbamate], for which the results for the IC50 against CDK2/Cyclin E1 and on CDK1/Cyclin B1 were 530 nM and more than 10 µM, respectively.
In the case of `CC(C)NC(=O)O[C@H]1CC[C@@H](c2cc(Nc3ccc4c(c3F)CS(=O)(=O)N4CC(C)(C)O)n[nH]2)C1` (single isomer, unassigned) [Example 254a, cis-3-(3-((4-fluoro-1-(2-hydroxy-2-methylpropyl)-2,2-dioxido-1,3-dihydrobenzo[c]isothiazol-5-yl)amino)-1H-pyrazol-5-yl)cyclopentyl isopropylcarbamate], the IC50 was found to be 12 nM on CDK2/Cyclin E1 and 3.74 µM against CDK1/Cyclin B1.
With `CC(C)NC(=O)O[C@H]1CC[C@@H](c2cc(Nc3ccc4c(c3F)CS(=O)(=O)N4CC(C)(C)O)n[nH]2)C1` (single isomer, unassigned) [Example 254b, cis-3-(3-((4-fluoro-1-(2-hydroxy-2-methylpropyl)-2,2-dioxido-1,3-dihydrobenzo[c]isothiazol-5-yl)amino)-1H-pyrazol-5-yl)cyclopentyl isopropylcarbamate], the IC50 amounted to 8.9 nM at CDK2/Cyclin E1 and 1.38 µM on CDK1/Cyclin B1.
As for `CN1c2ccc(Nc3cc([C@@H]4CC[C@H](OC(=O)NCC(C)(C)O)C4)[nH]n3)c(F)c2CS1(=O)=O` (single isomer, unassigned) [Example 330a, cis-3-(3-((4-fluoro-1-methyl-2,2-dioxido-1,3-dihydrobenzo[c]isothiazol-5-yl)amino)-1H-pyrazol-5-yl)cyclopentyl(2-hydroxy-2-methylpropyl)carbamate], the IC50 at CDK2/Cyclin E1 was 84 nM; at CDK1/Cyclin B1, more than 10 µM.
The corresponding values for `CN1c2ccc(Nc3cc([C@@H]4CC[C@H](OC(=O)NCC(C)(C)O)C4)[nH]n3)c(F)c2CS1(=O)=O` (single isomer, unassigned) [Example 330b, cis-3-(3-((4-fluoro-1-methyl-2,2-dioxido-1,3-dihydrobenzo[c]isothiazol-5-yl)amino)-1H-pyrazol-5-yl)cyclopentyl(2-hydroxy-2-methylpropyl)carbamate] are 24 nM and 4.09 µM.
